pIC50: −log10 of the molar value.
How the values were obtained:
VCAM-1 = test: In Vitro VCAM-1 Assay (ELISA of VCAM-1 on TNF-α stimulated endothelial cells); type: cell-based; conditions: Endothelial cell; primary human aortic (HAEC) or pulmonary (HPAEC) endothelial cells, TNF-α (1 ng/ml), approximately 16 hours
Protocol: Cell Culture and compound dosing: Cultured primary human aortic (HAEC) or pulmonary (HPAEC) endothelial cells were obtained from Clonetics, Inc., and were used below passage 9. Cells were seeded in 96 well plates such that they would reach 90-95% confluency by the following day. On the following day the cells were stimulated with TNF-α (1 ng/ml) in the presence or absence of compounds dissolved in DMSO such that the final concentration of DMSO is 0.25% or less. To establish a dose curve for each compound, four concentrations in 2- to 5-fold increments were used. Cells were exposed to TNF-α and compounds for approximately 16 hours. The next day the cells were examined under microscope to score for visual signs of toxicity or cell stress.
Following 16 hr exposure to TNF-α and compound the media was discarded and the cells were washed once with Hanks Balanced Salt Solution (HBSS)/Phosphate buffered saline (PBS) (1:1). Primary antibodies against VCAM-1 (0.25 μg/ml in HBSS/PBS+5% FBS) were added and incubated for 30-60 minutes at 37° C. Cells were washed with HBSS/PBS three times, and secondary antibody Horse Radish Peroxidase (HRP)-conjugated goat anti-mouse IgG (1:500 in HBSS/PBS+5% FBS) were added and incubated for 30 minutes at 37° C. Cells were washed with HBSS/PBS four time and TMB substrate were added and incubated at room temperature in the dark until there was adequate development of blue color. The length of time of incubation was typically 5-15 minutes. 2N sulfuric acid was added to stop the color development and the data was collected by reading the absorbance on a BioRad ELISA plate reader at OD 450 nm. The results are expressed as IC50 values (the concentration (micromolar) of compound required to inhibit 50% of the maximal response of the control sample stimulated by TNF-α only).

| SMILES | pIC50 (VCAM-1) | melting point |
| --- | --- | --- |
| C=C(C(=O)c1ccc(C(=O)O)cc1)c1cc(-c2cc3ccccc3s2)ccc1OC [Example 5, 4-[2-(5-Benzo[b]thien-2-yl-2-methoxy-phenyl)-acryloyl]-benzoic acid] | > 6.00 | 240 to 242 °C (dec.) |
| C=C(C(=O)c1c(C)cccc1Cl)c1ccc(C(=O)O)cc1-c1cccs1 [Example 32, 4-[1-(2-Chloro-6-methyl-benzoyl)-vinyl]-3-thien-2-yl-benzoic acid] | > 6.00 | 88 °C (dec.) |
| C=C(C(=O)c1ccc(C(=O)OC)cc1)c1cc(OC)c(OC)c(-c2cccs2)c1 [Example 48, 4-[2-(3,4-Dimethoxy-5-thien-2-yl-phenyl)-acryloyl]-benzoic acid methyl ester] | > 5.00 | 102 to 103 °C |
| C=C(C(=O)c1ccc(C(=O)N2CCC(O)CC2)cc1)c1cc(-c2cccs2)ccc1OC [Example 11, 1-[4-(4-Hydroxy-piperidine-1-carbonyl)-phenyl]-2-(2-methoxy-5-thien-2-yl-phenyl)-propenone] | > 6.00 | 197 to 199 °C |
| C=C(C(=O)c1ccc(C(=O)O)cc1)c1cc(OC)c(OC)c(-c2cccs2)c1 [Example 49, 4-[2-(3,4-Dimethoxy-5-thien-2-yl-phenyl)-acryloyl]-benzoic acid] | > 5.22 | 156 to 157 °C |
| C=C(C(=O)c1ccc(Nc2cnccn2)cc1)c1cc(-c2cccs2)ccc1OC [Example 25, 2-(2-Methoxy-5-thien-2-yl-phenyl)-1-[4-(pyrazin-2-ylamino)-phenyl]-propenone] | > 6.00 | 178 to 182 °C |
| C=C(C(=O)c1c(OC)cccc1OC)c1cc(-c2cccs2)ccc1OC [Example 65, 1-(2,6-Dimethoxy-phenyl)-2-(2-methoxy-5-thien-2-yl-phenyl)-propenone] | > 6.00 | 162 to 163 °C |
| C=C(C(=O)c1ccc(NS(=O)(=O)c2c(C)noc2C)cc1)c1cc(-c2cccs2)ccc1OC [Example 26, 3,5-Dimethyl-isoxazole-4-sulfonic acid {4-[2-(2-methoxy-5-thien-2-yl-phenyl)-acryloyl]-phenyl}-amide] | > 5.52 | 176 to 179 °C |
| C=C(C(=O)c1ccc(OC)c(-c2cccs2)c1)c1ccc(C(=O)O)cc1 [Example 15, 4-[1-(4-Methoxy-3-thien-2-yl-benzoyl)-vinyl]-benzoic acid] | > 5.52 | 204 to 205 °C |
| C=C(C(=O)c1cc(-c2cc3ccccc3s2)c(OC)cc1OC)c1ccc(C(=O)OC)cc1 [Example 12, 4-[1-(5-Benzo[b]thien-2-yl-2,4-dimethoxy-benzoyl)-vinyl]-benzoic acid methyl ester] | > 5.52 | 184 to 186 °C |
| C=C(C(=O)c1ccc(C(=O)OC)cc1)c1cc(-c2cccs2)ccc1OC [Example 9, 4-[2-(2-Methoxy-5-thien-2-yl-phenyl)-acryloyl]-benzoic acid methyl ester] | > 6.00 | 126 to 128 °C |
| C=C(C(=O)c1ccc(C(=O)O)cc1)c1c(OC)cc(-c2cccs2)cc1OC [Example 6] | > 6.00 | > 250 °C |
| C=C(C(=O)c1ccc([N+](=O)[O-])cc1)c1cc(-c2cccs2)ccc1OC [Example 18, 2-(2-Methoxy-5-thien-2-yl-phenyl)-1-(4-nitro-phenyl)-propenone] | > 5.52 | 160 to 162 °C |
| C=C(C(=O)c1ccc(C(=O)O)cc1)c1cc(-c2cccs2)ccc1OC(C)C [Example 59, 4-[2-(2-Isopropoxy-5-thien-2-yl-phenyl)-acryloyl]-benzoic acid] | > 6.00 | – |
| C=C(C(=O)c1ccc(N2CCCC2)cc1)c1cc(-c2cccs2)ccc1OC [Example 14, 2-(2-Methoxy-5-thien-2-yl-phenyl)-1-(4-pyrrolidin-1-yl-phenyl)-propenone] | > 5.52 | 187 to 190 °C |
| C=C(C(=O)c1ccc(N(C)S(C)(=O)=O)cc1)c1cc(-c2cccs2)ccc1OC [Example 20, N-{4-[2-(2-Methoxy-5-thien-2-yl-phenyl)-acryloyl]-phenyl}-N-methyl-methanesulfonamide] | > 6.00 | – |
| C=C(C(=O)c1c(OC)ccc(-c2cccs2)c1OC)c1ccc(OC(C)(C)C(=O)O)cc1 [Example 35, 2-{4-[1-(2,6-Dimethoxy-3-thien-2-yl-benzoyl)-vinyl]-phenoxy}-2-methyl-propionic acid] | > 5.52 | 138 °C (dec.) |
| C=C(C(=O)c1ccc(C(=O)O)cc1)c1cc(-c2cccs2)c(OC)cc1OC [Example 55, 4-[2-(2,4-Dimethoxy-5-thien-2-yl-phenyl)-acryloyl]-benzoic acid] | > 5.52 | 196 to 198 °C |

| SMILES | pIC50 (VCAM-1) | melting point |
| --- | --- | --- |
| C=C(C(=O)c1ccc(C(F)(F)F)cc1)c1cc(-c2cccs2)ccc1OC [Example 58, 2-(2-Methoxy-5-thien-2-yl-phenyl)-1-(4-trifluoromethyl-phenyl)-propenone] | > 5.52 | 131 to 133 °C |
| C=C(C(=O)c1ccc(NC(=O)c2cccn2C)cc1)c1cc(-c2cccs2)ccc1OC [Example 28, 1-Methyl-1H-pyrrole-2-carboxylic acid {4-[2-(2-methoxy-5-thien-2-yl-phenyl)-acryloyl]-phenyl}-amide] | > 6.00 | 165 to 168 °C |
| C=C(C(=O)c1c(OC)ccc(-c2cccs2)c1OC)c1ccc(C(F)(F)F)cc1 [Example 40, 1-(2,6-Dimethoxy-3-thien-2-yl-phenyl)-2-(4-trifluoromethyl-phenyl)-propenone] | > 6.00 | 102 to 105 °C |
| C=C(C(=O)c1c(C)cccc1C)c1cc(-c2cccs2)ccc1OC [Example 29, 1-(2,6-Dimethyl-phenyl)-2-(2-methoxy-5-thien-2-yl-phenyl)-propenone] | > 6.00 | – |
| C=C(C(=O)c1ccc(C(=O)NC(CO)(CO)CO)cc1)c1cc(-c2cccs2)ccc1OC [Example 10, N-(2-Hydroxy-1,1-bis-hydroxymethyl-ethyl)-4-[2-(2-methoxy-5-thien-2-yl-phenyl)-acryloyl]-benzamide] | > 6.00 | 144 to 146 °C |
| C=C(C(=O)c1c(OC)ccc(-c2cccs2)c1OC)c1c(Cl)cccc1Cl [Example 42, 2-(2,6-Dichloro-phenyl)-1-(2,6-dimethoxy-3-thien-2-yl-phenyl)-propenone] | > 6.00 | 152 to 154 °C |
| C=C(C(=O)c1ccc(NC(=O)C(C)C)cc1)c1cc(-c2cccs2)ccc1OC [Example 21, N-{4-[2-(2-Methoxy-5-thien-2-yl-phenyl)-acryloyl]-phenyl}-isobutyramide] | > 6.00 | 155 to 158 °C |
| C=C(C(=O)c1ccc(C(=O)O)cc1)c1cc(-c2ccsc2)ccc1OC [Example 62, 4-[2-(2-Methoxy-5-thien-3-yl-phenyl)-acryloyl]-benzoic acid] | > 6.00 | 192 to 194 °C |
| C=C(C(=O)c1cc(-c2cc3ccccc3s2)c(OC)cc1OC)c1ccc(F)cc1 [Example 47, 1-(5-Benzo[b]thien-2-yl-2,4-dimethoxy-phenyl)-2-(4-fluoro-phenyl)-propenone] | > 5.52 | 150 to 152 °C |
| C=C(C(=O)c1c(OC)ccc(-c2cccs2)c1OC)c1cccc(OC(C)(C)C(=O)O)c1 [Example 44, 2-{3-[1-(2,6-Dimethoxy-3-thien-2-yl-benzoyl)-vinyl]-phenoxy}-2-methyl-propionic acid] | > 5.52 | 79 to 94 °C |
| C=C(C(=O)c1c(OC)ccc(-c2cccs2)c1OC)c1ccccc1OC [Example 31, 1-(2,6-Dimethoxy-3-thien-2-yl-phenyl)-2-(2-methoxy-phenyl)-propenone] | > 6.00 | – |
| C=C(C(=O)c1c(C)cccc1C)c1ccccc1-c1cccnc1OC [Example 39, 1-(2,6-Dimethyl-phenyl)-2-[2-(2-methoxy-pyridin-3-yl)-phenyl]-propenone] | > 5.22 | – |
| C=C(C(=O)c1ccc(O)cc1)c1cc(-c2cccs2)ccc1OC [Example 17, 1-(4-Hydroxy-phenyl)-2-(2-methoxy-5-thien-2-yl-phenyl)-propenone] | > 6.00 | – |
| C=C(C(=O)c1c(Cl)cccc1Cl)c1cc(-c2cccs2)ccc1OC [Example 7, 1-(2,6-Dichloro-phenyl)-2-(2-methoxy-5-thien-2-yl-phenyl)-propenone] | > 6.00 | – |
| C=C(C(=O)c1cc(-c2cccs2)ccc1OC)c1ccc([N+](=O)[O-])cc1 [Example 52, 1-(2-Methoxy-5-thien-2-yl-phenyl)-2-(4-nitro-phenyl)-propenone] | > 5.52 | – |
| C=C(C(=O)c1c(C)cccc1C)c1ccccc1-c1cccs1 [Example 38, 1-(2,6-Dimethyl-phenyl)-2-(2-thien-2-yl-phenyl)-propenone] | > 5.00 | – |
| C=C(C(=O)c1cc(-c2cccs2)ccc1OC)c1ccc(C(=O)O)cc1 [Example 54, 4-[1-(2-Methoxy-5-thien-2-yl-benzoyl)-vinyl]-benzoic acid] | > 6.00 | – |
